Reference: ChEMBL document CHEMBL1201862, “PubChem BioAssay data set” (2004)
Activity calls are given as the source filed them.

How the values were obtained:
[1] = target: T1, Bcl-2-related protein A1 (Mus musculus, UniProt Q07440); test: small-molecule antagonists of Bfl-1/BH3 interaction – biochemical, TR-FRET, mouse Bfl-1, confirmation (AID 621);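 also: TR-FRET binding of GST-Bfl-1 to FITC-labelled Bid peptide via terbium antibody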
T1 sequence (Q07440 whole entry): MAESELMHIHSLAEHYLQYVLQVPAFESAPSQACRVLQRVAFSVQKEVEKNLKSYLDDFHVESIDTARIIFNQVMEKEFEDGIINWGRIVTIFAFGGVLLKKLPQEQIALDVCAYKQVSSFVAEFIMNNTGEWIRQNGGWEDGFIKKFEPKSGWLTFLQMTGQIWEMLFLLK

[2] = target: Glyceraldehyde-3-phosphate dehydrogenase (Homo sapiens, UniProt P04406)
Sequence of Glyceraldehyde-3-phosphate dehydrogenase (P04406 whole entry): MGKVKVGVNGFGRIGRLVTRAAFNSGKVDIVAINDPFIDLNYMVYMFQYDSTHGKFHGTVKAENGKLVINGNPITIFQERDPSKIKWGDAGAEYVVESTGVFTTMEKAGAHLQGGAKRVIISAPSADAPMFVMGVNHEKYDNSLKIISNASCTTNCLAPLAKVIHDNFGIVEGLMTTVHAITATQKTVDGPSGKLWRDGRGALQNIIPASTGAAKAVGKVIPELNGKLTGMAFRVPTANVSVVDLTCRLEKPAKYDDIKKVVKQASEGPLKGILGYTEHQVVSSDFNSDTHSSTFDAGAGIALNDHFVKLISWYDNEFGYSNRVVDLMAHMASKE

[3] = target: T1, Bcl-2-related protein A1; test: Bfl-1 binding inhibitors, SAR follow-up, biochemical, fluorescence polarization (AID 1070)
[4] = target: T2, Short transient receptor potential channel 4 (Mus musculus, UniProt Q9QUQ5); test: calcium entry via TRPC4 opening agents – cell-based, HEK293 TRPC4/mu-opioid, Fluo-4 calcium, dose response (AID 434937); type: functional
T2 sequence (Q9QUQ5 whole entry): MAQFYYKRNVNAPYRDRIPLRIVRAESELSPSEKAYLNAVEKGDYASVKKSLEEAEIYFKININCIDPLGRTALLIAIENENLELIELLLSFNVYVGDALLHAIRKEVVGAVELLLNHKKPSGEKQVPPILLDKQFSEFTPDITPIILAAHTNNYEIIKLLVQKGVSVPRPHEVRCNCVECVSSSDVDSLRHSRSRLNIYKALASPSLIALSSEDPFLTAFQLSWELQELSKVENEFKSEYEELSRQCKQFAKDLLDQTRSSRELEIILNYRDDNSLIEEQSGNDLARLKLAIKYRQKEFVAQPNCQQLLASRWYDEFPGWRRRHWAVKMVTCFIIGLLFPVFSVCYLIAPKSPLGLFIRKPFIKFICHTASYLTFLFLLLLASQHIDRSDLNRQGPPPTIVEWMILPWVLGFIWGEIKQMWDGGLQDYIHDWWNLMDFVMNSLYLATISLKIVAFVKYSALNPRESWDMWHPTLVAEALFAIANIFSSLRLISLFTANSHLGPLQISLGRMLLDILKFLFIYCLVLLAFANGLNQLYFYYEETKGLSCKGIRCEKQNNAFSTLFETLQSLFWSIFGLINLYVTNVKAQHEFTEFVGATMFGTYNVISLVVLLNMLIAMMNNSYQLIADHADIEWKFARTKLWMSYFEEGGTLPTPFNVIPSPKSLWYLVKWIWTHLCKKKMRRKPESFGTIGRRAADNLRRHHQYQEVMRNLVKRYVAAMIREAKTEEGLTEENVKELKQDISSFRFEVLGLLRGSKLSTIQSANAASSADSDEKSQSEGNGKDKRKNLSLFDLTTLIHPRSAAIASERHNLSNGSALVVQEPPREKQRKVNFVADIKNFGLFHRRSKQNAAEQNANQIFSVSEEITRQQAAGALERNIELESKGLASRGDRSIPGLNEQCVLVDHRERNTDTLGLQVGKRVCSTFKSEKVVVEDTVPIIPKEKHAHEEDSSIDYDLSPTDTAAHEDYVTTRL

[5] = tested on: BJ; test: BJ-TERT fibroblast viability loss – cell-based, RAS-independent, luminescence, dose response (AID 1933); type: functional; details: Homo sapiens
[6] = DRD fibroblast viability loss – cell-based, non-viral oncogenic, luminescence, dose response (AID 1934); type: functional; details: Homo sapiens
[7] = tested on: BJ; test: growth inhibition of engineered Ras-driven BJ cells – cell-based, alamar blue fluorescence, cherrypicked samples, dose response (AID 2631); type: functional; details: Homo sapiens;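 also: confirmatory dose-response assay in RAS-dependent BJ fibroblasts engineered with TERT, LT and ST, with cytotoxicity read by fluorescence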
[8] = alpha-synuclein stem-loop luciferase translation blockers – H4 neuroglioma cells, luminescence, confirmation (AID 1988); type: functional, cell-based
[9] = luciferase reporter signal suppression in cells – H4 neuroglioma cells, luminescence, dose response (AID 1990); type: functional, cell-based
[10] = target: X-box-binding protein 1 (Homo sapiens, UniProt P17861); type: functional, Cricetulus griseus;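 also: confirmatory dose-response counter-screen serving a CHOP assay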
Sequence of X-box-binding protein 1 (P17861 whole entry): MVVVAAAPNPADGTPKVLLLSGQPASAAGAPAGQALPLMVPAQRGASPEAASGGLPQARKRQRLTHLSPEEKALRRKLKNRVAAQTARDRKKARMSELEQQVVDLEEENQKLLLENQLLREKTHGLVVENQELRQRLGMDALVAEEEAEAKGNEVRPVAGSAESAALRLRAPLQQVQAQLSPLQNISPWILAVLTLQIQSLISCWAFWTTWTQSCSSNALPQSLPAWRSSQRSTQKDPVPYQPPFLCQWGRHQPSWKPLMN

[11] = tested on: BJ; test: cells; type: functional, cell-based; details: Homo sapiens
[12] = Luminescence Cell-Based Dose Response HTS to Identify Inhibitors of 5'UTR Stem-Loop Driven Prion Protein mRNA Translation in H4 Neuroglioblastoma Cells. [Related pubchem assays: 1827 (Project Summary), 1813 (Primary HTS)]; type: functional
[13] = tested on: BJ; test: BJ-TERT-LT-ST fibroblast viability loss – cell-based, RAS-independent, luminescence, dose response (AID 1935); type: functional; details: Homo sapiens;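 also: BJ fibroblasts immortalized with TERT plus LT and ST oncogenes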
[14] = target: Intestinal-type alkaline phosphatase (Homo sapiens, UniProt P09923); test: Dose Response confirmation of uHTS hits from a small molecule inhibitors of human intestinal alkaline phosphatase via a luminescent assay. [Related pubchem assays (depositor defined):AID2544, AID2574]; type: functional
Sequence of Intestinal-type alkaline phosphatase (P09923 whole entry, the tested form may be a part): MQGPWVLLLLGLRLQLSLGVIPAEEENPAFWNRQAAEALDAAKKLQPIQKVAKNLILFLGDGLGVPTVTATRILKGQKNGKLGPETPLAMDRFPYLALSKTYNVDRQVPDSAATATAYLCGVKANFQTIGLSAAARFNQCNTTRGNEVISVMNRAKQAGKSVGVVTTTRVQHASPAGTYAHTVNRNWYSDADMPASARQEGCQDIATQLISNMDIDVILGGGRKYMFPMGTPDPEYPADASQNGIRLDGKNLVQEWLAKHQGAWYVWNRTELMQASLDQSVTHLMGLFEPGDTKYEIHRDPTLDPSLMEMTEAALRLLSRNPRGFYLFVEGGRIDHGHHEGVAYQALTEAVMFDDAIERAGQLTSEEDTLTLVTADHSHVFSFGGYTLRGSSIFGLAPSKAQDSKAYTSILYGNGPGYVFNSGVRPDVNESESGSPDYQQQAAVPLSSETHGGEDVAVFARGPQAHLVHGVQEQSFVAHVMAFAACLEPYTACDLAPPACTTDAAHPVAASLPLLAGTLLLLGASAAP

[15] = target: Nucleotide-binding oligomerization domain-containing protein 2 (Homo sapiens, UniProt Q9HC29); test: inhibition of NOD2-driven NF-kB reporter – cell-based, luminescence, uHTS, HEK293 (AID 1566); type: functional
Sequence of Nucleotide-binding oligomerization domain-containing protein 2 (Q9HC29 whole entry, the tested form may be a part): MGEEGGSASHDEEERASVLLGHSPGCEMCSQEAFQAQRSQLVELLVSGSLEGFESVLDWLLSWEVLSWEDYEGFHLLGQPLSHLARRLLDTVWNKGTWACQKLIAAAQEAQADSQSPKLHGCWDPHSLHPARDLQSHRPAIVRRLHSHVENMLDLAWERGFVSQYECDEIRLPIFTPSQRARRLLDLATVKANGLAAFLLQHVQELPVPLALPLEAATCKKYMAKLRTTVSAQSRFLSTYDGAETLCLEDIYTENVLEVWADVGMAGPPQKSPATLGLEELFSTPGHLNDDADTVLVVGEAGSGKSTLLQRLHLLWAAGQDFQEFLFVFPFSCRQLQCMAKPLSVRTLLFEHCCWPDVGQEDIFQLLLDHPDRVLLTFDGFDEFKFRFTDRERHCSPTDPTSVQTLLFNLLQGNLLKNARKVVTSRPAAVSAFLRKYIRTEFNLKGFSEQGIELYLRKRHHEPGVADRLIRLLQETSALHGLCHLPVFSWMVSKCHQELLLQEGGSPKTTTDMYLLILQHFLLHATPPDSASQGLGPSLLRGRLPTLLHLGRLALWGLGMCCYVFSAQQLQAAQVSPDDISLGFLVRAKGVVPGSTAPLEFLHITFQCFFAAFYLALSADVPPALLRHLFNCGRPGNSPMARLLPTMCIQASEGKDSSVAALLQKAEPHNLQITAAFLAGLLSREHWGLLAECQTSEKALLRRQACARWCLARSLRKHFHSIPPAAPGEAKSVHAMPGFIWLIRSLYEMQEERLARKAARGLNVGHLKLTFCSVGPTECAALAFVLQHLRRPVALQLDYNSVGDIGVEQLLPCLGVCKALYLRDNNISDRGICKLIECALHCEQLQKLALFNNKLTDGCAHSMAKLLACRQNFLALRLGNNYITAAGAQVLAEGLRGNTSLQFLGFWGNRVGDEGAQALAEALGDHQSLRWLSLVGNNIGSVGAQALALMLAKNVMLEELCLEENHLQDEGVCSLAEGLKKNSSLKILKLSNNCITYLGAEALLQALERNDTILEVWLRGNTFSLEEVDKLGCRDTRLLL

[16] = tested on: HEK293; test: inhibition of NOD1-driven NF-kB reporter – cell-based, luminescence, uHTS, primary screen (AID 1578); type: functional; details: Homo sapiens
[17] = tested on: HEK293; test: cells; type: functional, cell-based; details: Homo sapiens
[18] = tested on: HEK293; test: cells; type: functional, cell-based; details: Homo sapiens; remark: listed apart in the source
[19] = non-specific 3'UTR reporter inhibition in Clone20-Shn3RL – cell-based, Renilla luciferase, cherry-picked, counter-screen for Shn3 inhibitor project, dose response (AID 624133); type: functional
[20] = blockers of HIV-1 ZM109 envelope-driven cell-cell fusion – HeLa effector, CEM target cells, luciferase, cherry-pick, dose response (AID 652058); type: functional, cell-based;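 also: luciferase signal from HIV-1 Env mediated cell-cell fusion of effector and target cells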
[21] = tested on: HEK293; test: cells; type: functional, cell-based; details: Homo sapiens; remark: listed apart in the source
[22] = HIV-1 AD8 envelope cell-cell fusion blockers – cherry-pick, dose response (AID 652062); type: functional, cell-based;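 also: luciferase signal from cell-cell fusion driven by HIV-1 clade B AD8 Env; potency is for inhibitors of fusion seen as a drop in luminescence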
[23] = loss of viability in HepG2 cells – cell-based, CellTiter-Glo, cherry-picked, cytotoxicity control for Shn3 inhibitor project, dose response (AID 624134); type: functional
[24] = tested on: HEK293; test: NOD2 signaling inhibitors in MDP-stimulated cells, cell-based, uHTS, luminescence (AID 2001); type: functional; details: Homo sapiens
[25] = reduction of Shn3 3'UTR-driven luciferase in osteoblasts – cell-based, Clone20 osteoblasts, firefly luciferase, cherry-picked, dose response (AID 624132); type: functional;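 also: firefly luciferase luminescence from reporter carrying the Shn3 3'UTR in osteoblasts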
[26] = target: T3, Calpain-2 catalytic subunit (Sus scrofa, UniProt P43367); test: m-calpain protease blockers, concentration series – biochemical, fluorogenic peptide substrate, dose response (AID 1420); type: functional
T3 sequence (P43367 whole entry): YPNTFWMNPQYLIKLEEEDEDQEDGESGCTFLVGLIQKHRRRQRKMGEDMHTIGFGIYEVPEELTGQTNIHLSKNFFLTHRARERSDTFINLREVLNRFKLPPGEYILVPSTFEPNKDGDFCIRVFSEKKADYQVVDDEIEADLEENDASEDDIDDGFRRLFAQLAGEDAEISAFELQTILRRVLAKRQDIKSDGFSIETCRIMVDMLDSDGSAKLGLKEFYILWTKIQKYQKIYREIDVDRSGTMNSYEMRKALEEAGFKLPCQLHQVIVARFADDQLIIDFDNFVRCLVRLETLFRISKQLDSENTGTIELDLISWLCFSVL

[27] = Luminescence Cell-Based Dose Confirmation HTS to Identify Inhibitors of Platelet Dense Granule Release. [Related pubchem assays: 1663 (Primary HTS), 1678 (Summary of Project)]; type: functional
[28] = target: Luciferin 4-monooxygenase (Photinus pyralis, UniProt P08659); test: inhibition of purified Photinus pyralis luciferase – biochemical, luminescence, dose response (AID 1891)
Sequence of Luciferin 4-monooxygenase (P08659 whole entry): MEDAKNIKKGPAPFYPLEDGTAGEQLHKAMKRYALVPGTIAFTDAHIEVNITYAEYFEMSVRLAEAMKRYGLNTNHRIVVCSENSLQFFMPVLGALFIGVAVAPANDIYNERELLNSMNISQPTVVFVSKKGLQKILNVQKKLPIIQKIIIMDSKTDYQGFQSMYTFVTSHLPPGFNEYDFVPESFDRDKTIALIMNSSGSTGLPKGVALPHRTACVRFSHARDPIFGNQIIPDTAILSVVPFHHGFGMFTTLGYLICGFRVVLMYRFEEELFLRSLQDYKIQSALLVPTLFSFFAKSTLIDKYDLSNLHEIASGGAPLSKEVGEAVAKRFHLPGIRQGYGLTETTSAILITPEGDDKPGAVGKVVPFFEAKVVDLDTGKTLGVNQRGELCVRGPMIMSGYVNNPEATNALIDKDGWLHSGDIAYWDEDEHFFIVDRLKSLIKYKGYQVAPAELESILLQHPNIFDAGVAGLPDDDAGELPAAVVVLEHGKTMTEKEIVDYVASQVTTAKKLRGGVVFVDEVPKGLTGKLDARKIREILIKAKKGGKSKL

[29] = target: Nonstructural protein 1 (Influenza A virus, UniProt Q194T2); type: functional, Influenza A virus (A/California/07/2009(H1N1))
Sequence of Nonstructural protein 1 (Q194T2 whole entry): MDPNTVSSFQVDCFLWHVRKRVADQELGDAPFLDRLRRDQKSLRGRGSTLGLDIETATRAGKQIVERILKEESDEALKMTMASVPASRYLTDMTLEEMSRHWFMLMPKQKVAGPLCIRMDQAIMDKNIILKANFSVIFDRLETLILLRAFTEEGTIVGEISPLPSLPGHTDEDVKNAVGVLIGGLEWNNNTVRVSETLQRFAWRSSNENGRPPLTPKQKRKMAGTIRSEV

CN1CCN(C2=C(Cl)C(=O)N(c3cccc(Cl)c3Cl)C2=O)CC1
IC50 [1]: 2.56 µM (active)
IC50 [2]: > 100 µM (not active)
IC50 [3]: 8.74 µM (active)

Cc1ccc(-n2cc(CNCC3CC(=O)N(C4CC4)C3)c(-c3cccc(C)c3)n2)cc1 (centres undefined)
EC50 [4]: 6.68 µM (active)

Cc1ccc(-c2nn(CC(=O)NCc3cc(-c4nn(C)c(=O)c5ccccc45)ccc3C)c(=O)c3ccccc23)cc1
EC50 [5]: 4.25 µM (active)
EC50 [6]: 6.29 µM (inconclusive)
EC50 [7]: > 133 µM (inactive)
EC50 [8]: 6.81 µM (active)
EC50 [9]: 8.15 µM (active)
Absolute IC50 (XBP1) [10]: 10 µM
EC50 [11]: 8.99 µM (active)
EC50 [12]: 6.28 µM (active)
EC50 [13]: 5.6 µM (inconclusive)

COc1cc(/C=C2\SC(=S)N(N(C)c3ccccc3)C2=O)ccc1O
IC50 [14]: 13.1 µM (inactive)

Cc1sc2ncnc(N3CCN(S(=O)(=O)c4ccc(Br)cc4)CC3)c2c1C
EC50 [15]: 4.22 µM (active)
EC50 [16]: 4.21 µM (active)
IC50 [17]: 4.16 µM (active)
IC50 [18]: > 20 µM (inactive)
AC50 [19]: 6.05 µM (active)
AC50 [20]: 21.5 µM (active)
IC50 [21]: 11.6 µM (active)
AC50 [22]: 21.2 µM (active)
AC50 [23]: 47.8 µM (active)
IC50 [24]: 5.47 µM (active)
AC50 [25]: 3.59 µM (active)

CCN(CC)c1ccc(/C=C(\C#N)C(N)=S)cc1
IC50 [26]: 5.92 µM (not active)
EC50 [27]: > 112 µM (not active)
EC50 [28]: 22.7 µM (active)
IC50 [29]: 39.1 µM (active)
